# Laboratory results reported in the NIST ThermoML archive (doi:10.1021/je300377a).
# Numbers after ± are expanded uncertainties.
# Assay: molar heat capacity at constant pressure
# Conditions: 101.33 kPa, Liquid
SMILES,molar heat capacity at constant pressure (275 K),molar heat capacity at constant pressure (285.01 K),molar heat capacity at constant pressure (295.01 K),molar heat capacity at constant pressure (335.02 K),molar heat capacity at constant pressure (345.02 K),molar heat capacity at constant pressure (355.01 K),molar heat capacity at constant pressure (375.01 K),molar heat capacity at constant pressure (265.04 K),molar heat capacity at constant pressure (275.12 K),molar heat capacity at constant pressure (295.03 K),molar heat capacity at constant pressure (305.03 K),molar heat capacity at constant pressure (315.07 K),molar heat capacity at constant pressure (325.13 K),molar heat capacity at constant pressure (355 K),molar heat capacity at constant pressure (365.05 K),molar heat capacity at constant pressure (375.09 K),molar heat capacity at constant pressure (335.04 K),molar heat capacity at constant pressure (345.11 K),molar heat capacity at constant pressure (385.14 K),further results
CCCCCCCC[N+]1(CC)CCCCC1.O=S(=O)([N-]S(=O)(=O)C(F)(F)F)C(F)(F)F,719.33 ± 350 J/K/mol,730.47 ± 350 J/K/mol,743.64 ± 360 J/K/mol,814.56 ± 390 J/K/mol,829.25 ± 400 J/K/mol,844.96 ± 410 J/K/mol,882.44 ± 420 J/K/mol,–,–,–,–,–,–,–,–,–,–,–,–,molar heat capacity at constant pressure (265.01 K): 703.63 ± 340 J/K/mol; molar heat capacity at constant pressure (305.01 K): 763.4 ± 370 J/K/mol; molar heat capacity at constant pressure (315.01 K): 782.14 ± 380 J/K/mol; molar heat capacity at constant pressure (325.01 K): 799.37 ± 380 J/K/mol; molar heat capacity at constant pressure (365 K): 868.26 ± 420 J/K/mol; molar heat capacity at constant pressure (385.02 K): 903.72 ± 430 J/K/mol
CCCCCCCC[n+]1ccccc1.O=S(=O)([N-]S(=O)(=O)C(F)(F)F)C(F)(F)F [1-octylpyridinium bis((trifluoromethyl)sulfonyl)amide],–,–,–,–,–,–,–,582.55 ± 280 J/K/mol,597.2 ± 290 J/K/mol,620.82 ± 300 J/K/mol,636.89 ± 310 J/K/mol,652.95 ± 310 J/K/mol,669.02 ± 320 J/K/mol,707.76 ± 340 J/K/mol,721.93 ± 350 J/K/mol,738.47 ± 350 J/K/mol,–,–,–,molar heat capacity at constant pressure (285.05 K): 609.01 ± 290 J/K/mol; molar heat capacity at constant pressure (335.03 K): 681.77 ± 330 J/K/mol; molar heat capacity at constant pressure (345.1 K): 694.53 ± 330 J/K/mol; molar heat capacity at constant pressure (385.13 K): 755.95 ± 360 J/K/mol
CCCCCCCC[N+]1(C)CCCC1.O=S(=O)([N-]S(=O)(=O)C(F)(F)F)C(F)(F)F,–,–,–,–,–,700.55 ± 340 J/K/mol,721.6 ± 350 J/K/mol,–,–,–,–,658.44 ± 320 J/K/mol,–,–,711.08 ± 340 J/K/mol,–,679.49 ± 330 J/K/mol,690.02 ± 330 J/K/mol,732.13 ± 350 J/K/mol,molar heat capacity at constant pressure (265.06 K): 605.8 ± 290 J/K/mol; molar heat capacity at constant pressure (275.13 K): 616.33 ± 300 J/K/mol; molar heat capacity at constant pressure (285.07 K): 626.86 ± 300 J/K/mol; molar heat capacity at constant pressure (295.04 K): 636.43 ± 310 J/K/mol; molar heat capacity at constant pressure (305.04 K): 647.91 ± 310 J/K/mol; molar heat capacity at constant pressure (325.14 K): 668.97 ± 320 J/K/mol
CCCCCCCCn1cc[n+](C)c1.O=S(=O)([N-]S(=O)(=O)C(F)(F)F)C(F)(F)F,628.1 ± 300 J/K/mol,636.18 ± 310 J/K/mol,643.79 ± 310 J/K/mol,675.65 ± 320 J/K/mol,684.21 ± 330 J/K/mol,–,720.34 ± 350 J/K/mol,–,–,–,–,–,–,–,–,–,–,–,–,molar heat capacity at constant pressure (265.02 K): 621.44 ± 300 J/K/mol; molar heat capacity at constant pressure (305.02 K): 651.87 ± 310 J/K/mol; molar heat capacity at constant pressure (315.02 K): 660.43 ± 320 J/K/mol; molar heat capacity at constant pressure (325.02 K): 668.51 ± 320 J/K/mol; molar heat capacity at constant pressure (355.02 K): 694.67 ± 330 J/K/mol; molar heat capacity at constant pressure (360 K): 706.08 ± 340 J/K/mol; molar heat capacity at constant pressure (385.03 K): 737.93 ± 350 J/K/mol
CCCC[N+]1(C)CCCC1.O=S(=O)([N-]S(=O)(=O)C(F)(F)F)C(F)(F)F,–,–,–,–,–,–,–,472.25 ± 230 J/K/mol,484.93 ± 230 J/K/mol,498.44 ± 240 J/K/mol,507.31 ± 240 J/K/mol,515.76 ± 250 J/K/mol,524.63 ± 250 J/K/mol,547.87 ± 260 J/K/mol,554.62 ± 270 J/K/mol,563.07 ± 270 J/K/mol,531.39 ± 260 J/K/mol,539.84 ± 260 J/K/mol,576.17 ± 280 J/K/mol,molar heat capacity at constant pressure (285.06 K): 492.11 ± 240 J/K/mol
